Patent US9561259B2, “Cyclosporin analogs” (priority 2010, dated 2017)

Experiments:
[1] = test system: Spleen cells from C57BL/6 (responder) and BALB/c (stimulator); experiment: Mixed Lymphocyte Reaction (MLR) assay; assay type: cell-based, mice; details: five days, 3H-thymidine incorporation
Method: The MLR assay is another means of estimating the immunosuppressive potential of test compounds. Female C57BL/6 and BALB/c mice, 6-8 weeks of age, were obtained from the Frederick Cancer Research and Development Center of the National Cancer Institute (Frederick, Md.). Spleens were harvested aseptically from all mice and single cell suspensions were prepared by disaggregating the cells with frosted glass slides, allowing the debris to settle, and washing the cells twice with complete medium. Complete medium consisted of RPMI 1640 medium containing 25 mM HEPES buffer (HyClone, Logan, Utah) supplemented with 10% heat-inactivated fetal bovine serum (FBS; Atlanta Biologicals, Lawrenceville, Ga.), 100 μg/mL streptomycin, 100 U/mL penicillin G, 0.25 μg/mL amphotericin B (HyClone), 2 mM L-glutamine dipeptide (HyClone), and 2×10^−5 M 2-mercaptoethanol (Sigma). Cells were washed twice and resuspended in complete medium. Cell counts were performed using a Beckman Coulter Z-1 particle counter (Fullerton, Calif.). Cell viability was determined by propidium iodide (PI) staining using an Accuri C6 flow cytometer (Ann Arbor, Mich.).
Spleen cells from C57BL/6 (H-2^b) and BALB/c (H-2^d) were used as responder (R) and stimulator (S) cells, respectively. Cells were plated in triplicate in 96-well flat microtiter plates (Costar, Cambridge, Mass.) such that each well contained 2×10^5 R and 8×10^5 S cells. Cultures were incubated in the absence or presence of various concentrations of Cs A, test compounds, or medium at 37° C. in humidified 5% CO2 for five days, pulsed with ^3H-thymidine (^3H-TdR) for the final 16 hours of incubation, and harvested using a Brandel 96-well cell harvester (Gaithersburg, Md.). Proliferation was measured by counting the radioactivity on filter mats in a Wallac 1450 Microbeta TriLux scintillation counter (Turku, Finland). […] These control cultures were incubated for 3 days under the same conditions as those described for the MLR; lymphoproliferation was determined in the same manner as described above.

[2] = Epimerization in MeOH at 50° C. (500 MHz NMR)
Text: The proton attached to the sarcosine center (adjacent to the sulfur atom) appears at ˜δ 5.9 in the R-isomer whilst in the S-isomer it moves downfield to ˜δ6.5.

Substance	IC50 [1] [µM]	Epimerization (%) ([2]; time 0 days)	Epimerization (%) ([2]; time 30 days)	Epimerization (%) ([2]; time 35 days)	Epimerization (%) ([2]; time 6 days)
[(R)-(3-(4-methyl-piperazin-1-yl)-propylthio)-Sar]^3 Cyclosporin A [Example 3]	3.3	0	2	–	–
[(R)-(3-ethylisopropylamino-propylthio)-Sar]^3 Cyclosporin A [Example 2]	2.8	0	–	0	–
[(R)-(3-morpholin-4-yl-propylthio)-Sar]^3 Cyclosporin A [Example 1]	3	0	0.2	–	0
